Experimental data taken from patent US6914045B2, “Glycopeptide antibiotics” (Wyeth Holdings Corporation, priority 2001, dated 2005).
In brackets after ≈: the same amount, converted by molar mass.

Tests used:
Assay in all cases: in vitro antibacterial evaluation, MIC by broth dilution
Assay type in all cases: cell-based
Escherichia coli = details: 18 hours at 35° C.
How it was run: (§1)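 Inoculum 5×10^5 CFU/mL; concentrations 64 to 0.06 μg/mL; MIC defined as lowest inhibitory level. Conducted by broth dilution under NCCLS guidelines.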

Streptococcus sp. = details: broth dilution, 18 hours at 35° C.
How it was run: as §1

Staphylococcus sp. = details: broth dilution, 18 hours at 35° C.
How it was run: as §1

Enterococcus sp. = details: broth dilution, 18 hours at 35° C.
How it was run: as §1

MIC Escherichia coli (ATCC 25922) (Escherichia coli; strain ATCC 25922): >64 µg/mL
MIC Escherichia coli (GC 4559) (Escherichia coli; strain GC 4559): >64 µg/mL
MIC Escherichia coli (GC 4560) (Escherichia coli; strain GC 4560): 8 µg/mL (≈ 5.76 µM)
MIC Streptococcus agalactiae (GC 4564) (Streptococcus sp.; Streptococcus agalactiae (GC 4564)): 2 µg/mL (≈ 1.44 µM)
MIC Streptococcus pneumoniae (ATCC 6301) (Streptococcus sp.; Streptococcus pneumoniae (ATCC 6301)): 1 µg/mL (≈ 0.72 µM)
MIC Streptococcus pneumoniae (GC 1894) (Streptococcus sp.; Streptococcus pneumoniae (GC 1894)): 1 µg/mL (≈ 0.72 µM)
MIC Streptococcus pneumoniae (GC 4565) (Streptococcus sp.; Streptococcus pneumoniae (GC 4565)): 2 µg/mL (≈ 1.44 µM)
MIC Streptococcus pyogenes (GC 4563) (Streptococcus sp.; Streptococcus pyogenes (GC 4563)): 0.5 µg/mL (≈ 0.36 µM)
MIC Streptococcus pneumoniae (ATCC 6301) (Streptococcus sp.; strain ATCC 6301): 1 µg/mL (≈ 0.72 µM)
MIC Streptococcus pneumoniae (GC 1894) (Streptococcus sp.; strain GC 1894): 1 µg/mL (≈ 0.72 µM)
MIC Streptococcus pyogenes (GC 4563) (Streptococcus sp.; strain GC 4563): 0.5 µg/mL (≈ 0.36 µM)
MIC Streptococcus agalactiae (GC 4564) (Streptococcus sp.; strain GC 4564): 2 µg/mL (≈ 1.44 µM)
MIC Streptococcus pneumoniae (GC 4565) (Streptococcus sp.; strain GC 4565): 2 µg/mL (≈ 1.44 µM)
MIC Staphylococcus aureus (ATCC 29213) (Staphylococcus sp.): 8 µg/mL (≈ 5.76 µM)
MIC Staphylococcus aureus (GC 1131) (Staphylococcus sp.): 8 µg/mL (≈ 5.76 µM)
MIC Staphylococcus aureus (GC 3051) (Staphylococcus sp.): 8 µg/mL (≈ 5.76 µM)
MIC Staphylococcus aureus (GC 3053) (Staphylococcus sp.): 8 µg/mL (≈ 5.76 µM)
MIC Staphylococcus aureus (GC 4541) (Staphylococcus sp.): 4 µg/mL (≈ 2.88 µM)
MIC Staphylococcus aureus (GC 4542) (Staphylococcus sp.): 4 µg/mL (≈ 2.88 µM)
MIC Staphylococcus aureus (GC 4544) (Staphylococcus sp.): 8 µg/mL (≈ 5.76 µM)
MIC Staphylococcus aureus (GC 4545) (Staphylococcus sp.): 8 µg/mL (≈ 5.76 µM)
MIC Staphylococcus aureus (GC 1131) (Staphylococcus sp.; inoculum 5×10^5 CFU/mL, strain GC 1131): 8 µg/mL (≈ 5.76 µM)
MIC Staphylococcus aureus (ATCC 29213) (Staphylococcus sp.; strain ATCC 29213): 8 µg/mL (≈ 5.76 µM)
MIC Staphylococcus aureus (GC 3051) (Staphylococcus sp.; strain GC 3051): 8 µg/mL (≈ 5.76 µM)
MIC Staphylococcus aureus (GC 3053) (Staphylococcus sp.; strain GC 3053): 8 µg/mL (≈ 5.76 µM)
MIC Staphylococcus aureus (GC 4541) (Staphylococcus sp.; strain GC 4541): 4 µg/mL (≈ 2.88 µM)
MIC Staphylococcus aureus (GC 4542) (Staphylococcus sp.; strain GC 4542): 4 µg/mL (≈ 2.88 µM)
MIC Staphylococcus aureus-SMITH (GC 4543) (Staphylococcus sp.; strain GC 4543): 4 µg/mL (≈ 2.88 µM)
MIC Staphylococcus aureus (GC 4544) (Staphylococcus sp.; strain GC 4544): 8 µg/mL (≈ 5.76 µM)
MIC Staphylococcus aureus (GC 4545) (Staphylococcus sp.; strain GC 4545): 8 µg/mL (≈ 5.76 µM)
MIC Coagulase Negative Staphylococcus (GC 4547) (Staphylococcus sp.; strain GC 4547): 8 µg/mL (≈ 5.76 µM)
MIC Coagulase Negative Staphylococcus (GC 4548) (Staphylococcus sp.; strain GC 4548): 4 µg/mL (≈ 2.88 µM)
MIC Coagulase Negative Staphylococcus (GC 4549) (Staphylococcus sp.; strain GC 4549): 4 µg/mL (≈ 2.88 µM)
MIC Coagulase Negative Staphylococcus (GC 4551) (Staphylococcus sp.; strain GC 4551): 8 µg/mL (≈ 5.76 µM)
MIC Coagulase Negative Staphylococcus (GC 6257) (Staphylococcus sp.; strain GC 6257): 4 µg/mL (≈ 2.88 µM)
MIC Staphylococcus aureus-SMITH (GC 4543) (Staphylococcus sp.; strain SMITH GC 4543): 4 µg/mL (≈ 2.88 µM)
MIC Enterococcus avium (GC 4558) (Enterococcus sp.; Enterococcus avium (GC 4558)): 16 µg/mL (≈ 11.5 µM)
MIC Enterococcus faecalis (ATCC 29212) (Enterococcus sp.; Enterococcus faecalis (ATCC 29212)): 8 µg/mL (≈ 5.76 µM)
MIC Enterococcus faecalis (GC 2242) (Enterococcus sp.; Enterococcus faecalis (GC 2242)): 8 µg/mL (≈ 5.76 µM)
MIC Enterococcus faecalis (GC 2691) (Enterococcus sp.; Enterococcus faecalis (GC 2691)): 16 µg/mL (≈ 11.5 µM)
MIC Enterococcus faecalis (GC 3059) (Enterococcus sp.; Enterococcus faecalis (GC 3059)): 16 µg/mL (≈ 11.5 µM)
MIC Enterococcus faecalis (GC 4552) (Enterococcus sp.; Enterococcus faecalis (GC 4552)): 8 µg/mL (≈ 5.76 µM)
MIC Enterococcus faecalis (GC 4553) (Enterococcus sp.; Enterococcus faecalis (GC 4553)): 16 µg/mL (≈ 11.5 µM)
MIC Enterococcus faecalis (GC 4554) (Enterococcus sp.; Enterococcus faecalis (GC 4554)): 16 µg/mL (≈ 11.5 µM)
MIC Enterococcus faecalis (GC 6189) (Enterococcus sp.; Enterococcus faecalis (GC 6189)): 8 µg/mL (≈ 5.76 µM)
MIC Enterococcus faecium (GC 2243) (Enterococcus sp.; Enterococcus faecium (GC 2243)): 8 µg/mL (≈ 5.76 µM)
MIC Enterococcus faecium (GC 4556) (Enterococcus sp.; Enterococcus faecium (GC 4556)): 8 µg/mL (≈ 5.76 µM)
MIC Enterococcus faecium (GC 4557) (Enterococcus sp.; Enterococcus faecium (GC 4557)): 8 µg/mL (≈ 5.76 µM)
MIC Enterococcus faecalis (ATCC 29212) (Enterococcus sp.; strain ATCC 29212): 8 µg/mL (≈ 5.76 µM)
MIC Enterococcus faecalis (GC 2242) (Enterococcus sp.; strain GC 2242): 8 µg/mL (≈ 5.76 µM)
MIC Enterococcus faecium (GC 2243) (Enterococcus sp.; strain GC 2243): 8 µg/mL (≈ 5.76 µM)
MIC Enterococcus faecalis (GC 2691) (Enterococcus sp.; strain GC 2691): 16 µg/mL (≈ 11.5 µM)
MIC Enterococcus faecalis (GC 3059) (Enterococcus sp.; strain GC 3059): 16 µg/mL (≈ 11.5 µM)
MIC Enterococcus faecalis (GC 4552) (Enterococcus sp.; strain GC 4552): 8 µg/mL (≈ 5.76 µM)
MIC Enterococcus faecalis (GC 4553) (Enterococcus sp.; strain GC 4553): 16 µg/mL (≈ 11.5 µM)
MIC Enterococcus faecalis (GC 4554) (Enterococcus sp.; strain GC 4554): 16 µg/mL (≈ 11.5 µM)
MIC Enterococcus faecium (GC 4556) (Enterococcus sp.; strain GC 4556): 8 µg/mL (≈ 5.76 µM)
MIC Enterococcus faecium (GC 4557) (Enterococcus sp.; strain GC 4557): 8 µg/mL (≈ 5.76 µM)
MIC Enterococcus avium (GC 4558) (Enterococcus sp.; strain GC 4558): 16 µg/mL (≈ 11.5 µM)
MIC Enterococcus faecalis (GC 6189) (Enterococcus sp.; strain GC 6189): 8 µg/mL (≈ 5.76 µM)
SMILES: CC(C)=CCCC1OCC2OC(OC3C(CO)OC(Oc4ccc(CC5NC(=O)C(C(C)c6ccccc6)NC(=O)CNC(=O)C(CO)NC(=O)C(C(O)C6CNC(=N)N6C6OC(CO)C(O)C(O)C6O)NC(=O)C(C(O)C6CNC(=N)N6)NC5=O)cc4)C(O)C3O)C(O)C(O)C2O1 (stereo not shown) [Example 123]
MIC Staphylococcus haemolyticus (GC 4546) (Staphylococcus sp.; strain GC 4546): 8 µg/mL (≈ 5.76 µM)
